Reference: PMC3071876 (Comparative biochemistry and physiology. Part B, …, 2011)
Where two headings read alike, the source gives them in different places.

Key:
[1] = target: T1, zebrafish monoamine oxidase (zMAO) (Danio rerio, UniProt Q6NSN2); assay: Steady-state kinetics of zMAO-catalyzed amine substrate oxidation; format: biochemical; conditions: for ^Dkcat: deuterium kinetic isotope effect; for kcat (H): air saturation (240 μM O2); for kcat (D): α,α-2[H] benzylamine analogue
T1 sequence (Q6NSN2 1-522): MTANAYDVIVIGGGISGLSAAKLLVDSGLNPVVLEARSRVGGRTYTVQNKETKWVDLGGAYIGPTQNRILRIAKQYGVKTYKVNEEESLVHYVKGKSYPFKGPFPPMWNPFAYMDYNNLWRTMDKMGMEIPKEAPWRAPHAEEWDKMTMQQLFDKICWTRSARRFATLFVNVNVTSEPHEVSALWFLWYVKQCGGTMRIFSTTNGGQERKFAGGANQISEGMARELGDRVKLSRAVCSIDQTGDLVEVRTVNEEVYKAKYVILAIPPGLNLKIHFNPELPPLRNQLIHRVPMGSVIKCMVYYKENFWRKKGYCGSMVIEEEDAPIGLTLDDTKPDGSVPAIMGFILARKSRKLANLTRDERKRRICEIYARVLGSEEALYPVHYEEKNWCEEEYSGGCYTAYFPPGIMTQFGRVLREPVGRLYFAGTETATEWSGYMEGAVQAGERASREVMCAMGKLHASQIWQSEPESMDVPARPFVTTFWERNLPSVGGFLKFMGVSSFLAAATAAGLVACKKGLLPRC

[2] = target: T2, hMAO A (Homo sapiens, UniProt P21397); conditions: ref Li, cited from earlier work
T2 sequence (P21397 1-527): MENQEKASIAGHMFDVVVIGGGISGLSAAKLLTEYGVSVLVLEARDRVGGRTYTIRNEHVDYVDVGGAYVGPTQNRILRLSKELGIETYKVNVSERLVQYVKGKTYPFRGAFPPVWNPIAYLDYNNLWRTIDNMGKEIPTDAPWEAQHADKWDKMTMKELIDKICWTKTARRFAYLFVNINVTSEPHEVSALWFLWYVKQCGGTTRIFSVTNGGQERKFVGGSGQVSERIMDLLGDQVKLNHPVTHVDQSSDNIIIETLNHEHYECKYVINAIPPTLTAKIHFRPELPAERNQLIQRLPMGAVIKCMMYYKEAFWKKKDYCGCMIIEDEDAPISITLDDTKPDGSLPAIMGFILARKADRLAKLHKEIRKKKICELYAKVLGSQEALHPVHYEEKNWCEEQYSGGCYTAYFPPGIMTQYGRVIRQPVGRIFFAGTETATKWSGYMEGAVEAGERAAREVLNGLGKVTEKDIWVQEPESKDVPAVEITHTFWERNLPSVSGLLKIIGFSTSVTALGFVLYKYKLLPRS

[3] = target: T3, hMAO B (Homo sapiens, UniProt P27338); conditions: cited from earlier work
T3 sequence (P27338 1-520): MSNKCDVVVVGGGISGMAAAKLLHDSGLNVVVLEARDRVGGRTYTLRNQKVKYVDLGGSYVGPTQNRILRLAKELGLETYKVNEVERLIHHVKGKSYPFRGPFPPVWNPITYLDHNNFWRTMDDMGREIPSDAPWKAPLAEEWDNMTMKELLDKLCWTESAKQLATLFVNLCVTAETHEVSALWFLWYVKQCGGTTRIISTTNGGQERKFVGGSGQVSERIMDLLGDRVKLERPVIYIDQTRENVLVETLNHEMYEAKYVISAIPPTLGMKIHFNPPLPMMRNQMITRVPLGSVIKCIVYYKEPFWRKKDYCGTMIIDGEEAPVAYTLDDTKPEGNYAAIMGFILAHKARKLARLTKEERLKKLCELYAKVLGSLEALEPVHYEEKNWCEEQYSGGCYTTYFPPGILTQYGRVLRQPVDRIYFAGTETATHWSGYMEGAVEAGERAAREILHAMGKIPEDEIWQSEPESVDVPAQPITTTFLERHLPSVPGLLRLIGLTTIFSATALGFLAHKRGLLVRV

[4] = target: T1, zebrafish monoamine oxidase (zMAO); assay: Reversible inhibition of zMAO with kynuramine as substrate; format: biochemical
[5] = target: T2, hMAO A; conditions: cited from earlier work; for Ki: hMAO A
[6] = target: T3, hMAO B; assay: Reversible inhibition of hMAO B; format: biochemical; conditions: no reference mark, indole analogues tested up to 100 μM
[7] = target: T3, hMAO B; conditions: cited from earlier work; remark: listed apart in the source
[8] = substrate: NCCC(=O)c1ccccc1N; assay: Steady-state kinetics of zMAO-catalyzed amine substrate oxidation; format: biochemical, Danio rerio; conditions: other: zMAO, 25 °C, pH 7.4
[9] = substrate: NCCCCc1ccccc1; assay: as above; format: biochemical, Danio rerio; conditions: other: zMAO, 25 °C, pH 7.4
[10] = substrate: NCCc1ccc(O)cc1; assay: as above; format: biochemical, Danio rerio; conditions: other: zMAO, 25 °C, pH 7.4
[11] = substrate: NCc1ccccc1; assay: as above; format: biochemical, Danio rerio; conditions: other: zMAO, para-substituted benzylamine; pH 7.4; 25.0 °C
[12] = substrate: NCCc1ccc(O)c(O)c1; assay: purified protein, by the assay type; conditions: other: zMAO, 25 °C, pH 7.4
[13] = read-out: Km(H), zMAO, para-substituted benzylamine
[14] = zMAO, para-substituted benzylamine
[15] = ref Nandigama and Edmondson (2000)
[16] = zMAO, hMAO B specific inhibitors (Table 3), kynuramine substrate
[17] = zMAO, hMAO A specific inhibitors (Table 2), kynuramine substrate

With `NCc1ccc(F)cc1` [p-F] as the molecule, how does the Km [1, 13] read?
Its Km is 161 ± 8 µM.

And the “^Dkcat” value ([1]; zMAO)?
The value was 6.7 ± 0.2 min⁻¹.

And the “kcat (H)” value [1, 14]?
Its value is 0.248 ± 0.005 s⁻¹.

And the “kcat (D)” value ([1]; zMAO)?
The value was 0.0372 ± 0.00083 s⁻¹.

With `NCCc1ccc(O)c(O)c1` [Dopamine] as the molecule, how does the kcat ([1]; zMAO, 25 °C, pH 7.4) read?
Its kcat is 4.03 s⁻¹.

And the Km ([2]; et al. (2002))?
The Km was 240 ± 42 µM.

And the kcat ([2]; et al. (2002))?
Its kcat is 71 ±4 ^a min^−1.

What about the Km [3, 15] of the same molecule?
Its Km is 128 ± 15 µM.

What about the kcat [3, 15] of the same molecule?
The kcat was 65 ±12 ^b min^−1.

With `C(=CCc1ccccc1)Cc1ccccc1` [1,4-Diphenyl-2-Butene] as the molecule, how does the Ki [4, 16] read?
Its Ki is “No inhibition”.

For `Cc1nccc2c1[nH]c1ccccc12` [Harmane], which Ki [4] is on record?
Its Ki is 0.13 ± 0.02 µM.

For `Cn1c(=O)c2c(nc(C=Cc3cccc(Cl)c3)n2C)n(C)c1=O` [8-(3-Chlorostyryl)-caffeine], which Ki [4] is on record?
The Ki was 2.4 ± 0.6 µM.

Which results are given for `NCc1ccc(C(F)(F)F)cc1` [p-CF3]?
Km [1, 13]: 115 ± 36 µM; ^Dkcat ([1]; zMAO): 4.2 ± 0.3 min⁻¹; kcat (H) [1, 14]: 1.57 ± 0.12 s⁻¹; kcat (D) ([1]; zMAO): 0.375 ± 0.025 s⁻¹

Which results are given for `NCc1cccnc1` [3-Aminomethylpyridine]?
Substrate behaviour ([1]; zMAO): Not a Substrate; kcat ([3]; ref Li, (2006)): 223 ±5 ^c min^−1; Ki ([5]; competitive inhibitor, ref Li, (2006)): 5200 µM

With `NCCC(=O)c1ccccc1N` [Kynuramine] as the molecule, how does the kcat ([1]; zMAO, 25 °C, pH 7.4) read?
Its kcat is 1.25 s⁻¹.

And the kcat ([2]; et al. (2002))?
The kcat was 125 ±8 ^a min^−1.

And the kcat [3, 15]?
The kcat was 96 ±11 ^b min^−1.

With `CS(=O)(=O)O.c1cc2c(cc1C1CCCCC1)c1c3n2CCNC3CCC1` (stereo not drawn) [Tetrindole Mesylate] as the molecule, how does the Ki [4, 17] read?
Its Ki is 34.1 ± 2 µM.

What about the Ki [6] of the same molecule?
Its Ki is “No Inhibition”.

What about the Ki ([5]; ref Wang, et al. (2009)) of the same molecule?
The Ki was 5.3 ± 0.2 µM.

What does the source list for `NCCc1c[nH]c2ccc(O)cc12` [Serotonin]?
Km ([2]; et al. (2002)): 295 ± 46 µM; Km [3, 15]: 2270 ± 310 µM

For `COc1ccc(CN)cc1` [p-MeO], which Km [1, 13] is on record?
The Km was 55.5 ± 4.1 µM.

And the “^Dkcat” value ([1]; zMAO)?
The value was 5.9 ± 0.7 min⁻¹.

And the “kcat (H)” value [1, 14]?
Its value is 0.138 ± 0.012 s⁻¹.

And the “kcat (D)” value ([1]; zMAO)?
The value was 0.0237 ± 0.00083 s⁻¹.

Which results are given for `NCCc1ccc(O)cc1` [Tyramine]?
kcat ([1]; zMAO, 25 °C, pH 7.4): 7.78 s⁻¹; kcat ([2]; (2006), listed as tyramine): 182 min⁻¹; Km ([2]; (2006)): 427 ± 18 µM; kcat ([2]; (2006)): 182 ±26 ^c min^−1

Which Km [1, 13] does the source give for `Cc1ccc(CN)cc1` [p-Me] here?
Its Km is 67.8 ± 4.1 µM.

What about the “^Dkcat” value ([1]; zMAO) of the same molecule?
Its value is 6.4 ± 0.2 min⁻¹.

What about the “kcat (H)” value [1, 14] of the same molecule?
The value was 0.115 ± 0.0017 s⁻¹.

What about the “kcat (D)” value ([1]; zMAO) of the same molecule?
The value was 0.018 ± 0.00033 s⁻¹.

With `CC(C)=CCC/C(C)=C/CC/C(C)=C/CO` [Farnesol, trans-trans-farnesol] as the molecule, how does the Ki [4, 16] read?
Its Ki is “No inhibition”.

With `CS(=O)(=O)O.Cc1ccc2c(c1)c1c3n2CCNC3CCC1` (stereo not drawn) [Pirlindole Mesylate] as the molecule, how does the Ki [4, 17] read?
The Ki was 2.4 ± 0.4 µM.

And the Ki [6]?
Its Ki is “No Inhibition”.

What about the Ki ([5]; ref Wang, et al. (2009)) of the same molecule?
The Ki was 0.92 ± 0.04 µM.

For `C[C@H](N)Cc1ccccc1` [d-Amphetamine], which Mode of inhibition ([4]; zMAO catalyzed kynuramine oxidation) is on record?
Its Mode of inhibition is “uncompetitive inhibitor”.

What about the Ki [4, 17] of the same molecule?
The Ki was 38 ± 5.1 µM.

What about the Mode of inhibition ([5]; human MAO A, ref Vintém et al., 2005) of the same molecule?
Its Mode of inhibition is “competitively inhibits”.

And the Ki ([7]; hMAO B, ref Li, (2006))?
Its Ki is 280 ± 10 µM.

And the Mode of inhibition ([7]; human MAO B, depending on the substrate, ref Pearce and Roth, 1985)?
The Mode of inhibition was “either as a competitive or as a mixed inhibitor”.

Which results are given for `CC(C)(C)c1ccc(CN)cc1` [p-t-Butyl]?
Km [1, 13]: 48 ± 6 µM; ^Dkcat ([1]; zMAO): 2.0 ± 0.1 min⁻¹; kcat (H) [1, 14]: 0.115 ± 0.0033 s⁻¹; kcat (D) ([1]; zMAO): 0.0567 ± 0.0033 s⁻¹

What does the source list for `NCc1ccc(C(=O)O)cc1` [p-Carboxybenzylamine]?
Km ([1]; zMAO, 25 °C, pH 7.4): 76 ± 8 µM; kcat ([1]; zMAO, 25 °C, pH 7.4): 0.0883 ± 0.0033 s⁻¹

What does the source list for `NCc1ccc(Cl)cc1` [p-CI]?
Km [1, 13]: 94 ± 10 µM; ^Dkcat ([1]; zMAO): 5.9 ± .2 min⁻¹; kcat (H) [1, 14]: 0.583 ± 0.017 s⁻¹; kcat (D) ([1]; zMAO): 0.0983 ± 0.00283 s⁻¹

With `C[C@H](NCc1ccc(OCc2cccc(F)c2)cc1)C(N)=O` [Safinamide] as the molecule, how does the Ki [4, 16] read?
The Ki was “No inhibition”.

What does the source list for `NCc1ccc(Br)cc1` [p-Br]?
Km [1, 13]: 103 ± 20 µM; ^Dkcat ([1]; zMAO): 8.2 ± 0.7 min⁻¹; kcat (H) [1, 14]: 0.667 ± 0.05 s⁻¹; kcat (D) ([1]; zMAO): 0.0813 ± 0.00283 s⁻¹

With `C(C=Cc1ccccc1)=Cc1ccccc1` [1,4-Diphenyl-1,3-Butadiene] as the molecule, how does the Ki [4, 16] read?
The Ki was “No inhibition”.

With `NCc1ccccc1` [p-H, benzylamine] as the molecule, how does the Kd [1] read?
Its Kd is 3.3 µM.

And the “^Dkcat” value ([1]; zMAO)?
Its value is 2.0 ± 0.2 min⁻¹.

What about the “kcat (D)” value ([1]; zMAO) of the same molecule?
Its value is 0.039 ± 0.00333 s⁻¹.

B1: zebrafish monoamine oxidase (zMAO) (Danio rerio) (protein)
chain: T1 sequence (Q6NSN2 1-522)
Which Km [8] does the source give for B1 here?
The Km was 58 ± 5 µM.

What about the kcat [8] of the same molecule?
Its kcat is 1.25 ± 0.0333 s⁻¹.

And the Km [9]?
Its Km is 185 ± 17 µM.

And the kcat [9]?
Its kcat is 2.07 ± 0.0667 s⁻¹.

And the kcat/Km [9]?
Its kcat/Km is 11200 M⁻¹ s⁻¹.

And the Km [10]?
Its Km is 18 ± 3 µM.

What about the kcat [10] of the same molecule?
The kcat was 7.78 ± 0.333 s⁻¹.

And the Km [11]?
Its Km is 82.2 ± 9.0 µM.

What about the kcat [11] of the same molecule?
The kcat was 0.0783 ± 0.0017 s⁻¹.

What about the Km [12] of the same molecule?
Its Km is 88 ± 14 µM.

And the kcat [12]?
Its kcat is 4.03 s⁻¹.
